# Experimental data published in patent publication US20070254882A1, “Sulfamide Derivatives and Pharmaceutical Composition for Upregulation of Lipid Metabolism Comprising Same” (CRYSTAL GENOMICS, INC., priority 2004, published 2007).
# Tests used:
# [1] = biological target: T1, human PPAR α (Homo sapiens, UniProt Q07869); test: Exogeneous PPAR α agonist assay (GAL4 DNA binding domain/PPAR α ligand binding domain, luciferase) in 293T cells; assay type: cell-based; design: scale not given here; conditions: 25 μM compound, 48 hours, luciferase activity increase relative to the control
# T1 construct: expressed in transfected cells; host or cells: HepG2 (ATCC HB-8065) or 293T cells (ATCC CRL-1573)
# T1 sequence (Q07869 239-466 limits assumed): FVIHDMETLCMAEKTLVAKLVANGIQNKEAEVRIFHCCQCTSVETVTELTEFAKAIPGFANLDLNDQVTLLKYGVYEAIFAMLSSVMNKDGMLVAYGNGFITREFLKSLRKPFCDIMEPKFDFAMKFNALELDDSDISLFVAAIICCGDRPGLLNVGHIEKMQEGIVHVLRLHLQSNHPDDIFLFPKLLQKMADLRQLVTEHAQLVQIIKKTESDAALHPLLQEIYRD
# In short: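 HepG2 or 293T cells (2×10^4/well) lipofectamine-transfected 3 hours with PPAR α, UAS firefly-luciferase and Renilla-luciferase constructs. Compounds then added at 25 μM final and incubated 48 hours at 37° C. PPAR α activation measured as dual firefly/Renilla luciferase luminescence.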
# [2] = biological target: T1, human PPAR α; test: Exogeneous PPAR α agonist assay (GAL4 DNA binding domain/PPAR α ligand binding domain, luciferase) in HepG2 cells; assay type: cell-based; conditions: 25 μM compound, 48 hours, luciferase activity increase relative to the control
# Protocol: Step 1) Exogeneous PPAR α Agonist Assay
# Cross-activation assay of the compounds of Examples 1 to 134 against human PPAR α was carried out using a DNA construct of PPAR α including its ligand binding domain and GAL4 DNA binding domain (Sher et al., Biochemistry 32, 5598-5604, 1993) to analyze whether any of the compounds binds to the ligand binding domain of PPAR α expressed by the construct to affect the PPAR α activity. When the GAL4 DNA binding domainm which is fused with PPAR α ligand binding domain, binds to UAS (upstream activation sequence) of firefly-luciferase, the luciferase is expressed. Therefore, the effect of each of the compounds of Examples on PPAR α activation can be evaluated by analyzing the activation of luciferase.
# Specifically, 2×10^4 of HepG2 (ATCC HB-8065) or 293T cells (ATCC CRL-1573) were aliquotted into each well of a 96-well plate and cultured for overnight at 37° C. in a CO2 incubator (culture condition: DMEM, 10% FBS and 1% antibiotics).
# The transformation of PPAR α DNA was traced as follows. First, a mixture of the following ingredients in amounts per well; Solution A (Promega) containing 50 ng of full length human PPAR α DNA, 50 ng of firefly-luciferase construct, 5 ng of Renilla-luciferase construct, 1.0 μl of PLUS™ reagent, and 8.3 μl of a serum-free medium containing no antibiotics; was prepared and kept at room temperature for 15 min. Solution B, which contained 0.5 μl of Lipofectamine™ reagent and 9.5 μl of serum-free medium without antibiotics per well, and Solution C, which contained 50 μl of serum-free medium per well), were prepared. Solutions A, B and C were mixed together to prepare lipofectamin-DNA complex, and the mixture was kept at room temperature for 15 min. Single layer of cells on each well of a 96-well plate were washed with serum-free DMEM, 70 μl of lipofectamine-DNA complex prepared above was added thereto, the plate was incubated at 37° C. in a 5% CO2 incubator for 3 hours to transform the cells, and […] of a diluted solution of each of the compounds of Examples 1 to 134 per well was added to each well to a final concentration 25 μM, and incubated at 37° C. in a CO2 incubator for 48 hours. Then, the medium was removed, 50 μl of passive lysis buffer (Promega) was added thereto, and the plate was shook at room temperature for 20 min to lysis cells. 40 μl of Luciferase Assay reagent of Dual Luciferase Kit […] per 20 μl of cell lysis buffer was added to the plate, followed by reacting at 20° C. for 8 seconds, and 40 μl of Stop & Glo reagent (Promega) as a stop solution was added thereto to quench the reaction. The luminescence intensities of F-luciferase and R-luciferase were measured with MicroLumat Plus (Berthord Technology).
Compound,Activity at 25 μM Step 1 293T cell [1],Activity at 25 μM Step 1 HepG2 cell [2]
"Cc1ccc(-c2nc(COc3cccc(CN([C@H](C(=O)O)C(C)C)S(N)(=O)=O)c3)c(C)o2)cc1 [Example 2, (S)-3-methyl-2-[N-(sulfamoyl)-N-[3-[(5-methyl-2-p-tolyloxazol-4-yl)methoxy]benzyl]amino]butyric acid]",6,25
"CCN(CC)S(=O)(=O)N(CC(=O)O)Cc1cccc(OCc2nc(-c3ccc(C(F)(F)F)cc3)oc2C)c1 [Example 7, [N—(N,N-diethylamino)sulfonyl-N-[3-[[2-(4-trifluoromethylphenyl)-5-methyloxazol-4-yl]methoxy]benzyl]amino]acetic acid]",3,54
"Cc1oc(-c2ccc(C(F)(F)F)cc2)nc1COc1cccc(CN(CC(=O)O)S(=O)(=O)N(C)C(C)C)c1 [Example 8, [N—(N-isopropyl-N-methylamino)sulfonyl-N-[3-[[2-(4-trifluoromethylphenyl)-5-methyloxazol-4-yl]methoxy]benzyl]amino]acetic acid]",4,31
"C=CCN(C)S(=O)(=O)N(CC(=O)O)Cc1cccc(OCc2nc(-c3ccc(C(F)(F)F)cc3)oc2C)c1 [Example 9, [N—(N-allyl-N-methylamino)sulfonyl-N-[3-[[2-(4-trifluoromethylphenyl)-5-methyloxazol-4-yl]methoxy]benzyl]amino]acetic acid]",3,52
"C#CCN(C)S(=O)(=O)N(CC(=O)O)Cc1cccc(OCc2nc(-c3ccc(C(F)(F)F)cc3)oc2C)c1 [Example 10, [N—(N-methyl-N-propargylamino)sulfonyl-N-[3-[[2-(4-trifluoromethylphenyl)-5-methyloxazol-4-yl]methoxy]benzyl]amino]acetic acid]",3,45
"Cc1oc(-c2ccc(C(F)(F)F)cc2)nc1COc1cccc(CN(CC(=O)O)S(=O)(=O)N2CCCCC2)c1 [Example 11, [N-(piperidinyl)sulfonyl-N-[3-[[2-(4-trifluoromethylphenyl)-5-methyloxazol-4-yl]methoxy]benzyl]amino]acetic acid]",4,44
"CCN(c1cccc(C)c1)S(=O)(=O)N(CC(=O)O)Cc1cccc(OCc2nc(-c3ccc(C(F)(F)F)cc3)oc2C)c1 [Example 21, [N—(N-ethyl-N-m-tolylamino)sulfonyl-N-[3-[[2-(4-trifluoromethylphenyl)-5-methyloxazol-4-yl]methoxy]benzyl]amino]acetic acid]",5,40
COc1ccc(N(C)S(=O)(=O)N(CC(=O)O)Cc2cccc(OCc3nc(-c4ccc(C(F)(F)F)cc4)oc3C)c2)cc1 [Example 22],4,49
"Cc1oc(-c2ccc(C(F)(F)F)cc2)nc1COc1cccc(CN(CC(=O)O)S(=O)(=O)N(C)c2cccc(F)c2)c1 [Example 23, [N—[N-(3-fluorophenyl)-N-methylamino]sulfonyl-N-[3-[[2-(4-trifluoromethylphenyl)-5-methyloxazol-4-yl]methoxy]benzyl]amino]acetic acid]",5,34
"CCN(CC)S(=O)(=O)N(CC(=O)O)Cc1cccc(OCCc2nc(-c3ccc(C)cc3)oc2C)c1 [Example 63, [N—(N,N-diethylamino)sulfonyl-N-[3-[2-[2-(4-methylphenyl)-5-methyloxazol-4-yl]ethoxy]benzyl]amino]acetic acid]",3,33
"Cc1ccc(-c2nc(CCOc3cccc(CN(CC(=O)O)S(=O)(=O)N(C)C(C)C)c3)c(C)o2)cc1 [Example 64, [N—(N-isopropyl-N-methylamino)sulfonyl-N-[3-[2-[2-(4-methylphenyl)-5-methyloxazol-4-yl]ethoxy]benzyl]amino]acetic acid]",2,30
"CCN(CC)S(=O)(=O)N(CC(=O)O)Cc1cccc(OCCc2nc(-c3ccc(C(F)(F)F)cc3)oc2C)c1 [Example 67, [N—(N,N-diethylamino)sulfonyl-N-[3-[2-[2-(4-trifluoromethylphenyl)-5-methyloxazol-4-yl]ethoxy]benzyl]amino]acetic acid]",2,50
"Cc1oc(-c2ccc(C(F)(F)F)cc2)nc1CCOc1cccc(CN(CC(=O)O)S(=O)(=O)N(C)C(C)C)c1 [Example 68, [N—(N-isopropyl-N-methylanmo)sulfonyl-N-[3-[2-[2-(4-trifluoromethylphenyl)-5-methyloxazol-4-yl]ethoxy]benzyl]amino]acetic acid]",2,11
"C=CCN(C)S(=O)(=O)N(CC(=O)O)Cc1cccc(OCCc2nc(-c3ccc(C(F)(F)F)cc3)oc2C)c1 [Example 69, [N—(N-allyl-N-methylamino)sulfonyl-N-[3-[2-[2-(4-trifluoromethylphenyl)-5-methyloxazol-4-yl]ethoxy]benzyl]amino]acetic acid]",2,40
"C#CCN(C)S(=O)(=O)N(CC(=O)O)Cc1cccc(OCCc2nc(-c3ccc(C(F)(F)F)cc3)oc2C)c1 [Example 70, [N—(N-methyl-N-propargylamino)sulfonyl-N-[3-[2-[2-(4-trifluoromethylphenyl)-5-methyloxazol-4-yl]ethoxy]benzyl]amino]acetic acid]",3,34
"Cc1oc(-c2ccc(C(F)(F)F)cc2)nc1CCOc1cccc(CN(CC(=O)O)S(=O)(=O)N2CCCCC2)c1 [Example 71, [N-(piperidinyl)sulfonyl-N-[3-[2-[2-(4-trifluoromethylphenyl)-5-methyloxazol-4-yl]ethoxy]benzyl]amino]acetic acid]",2,44
"Cc1oc(-c2cccs2)nc1CCOc1ccc(CN(CC(=O)O)S(=O)(=O)N2CCc3ccccc32)cc1 [Example 119, [N-(indolinyl)sulfonyl-N-[4-[2-[2-(thiophen-2-yl)-5-methyloxazol-4-yl]ethoxy]benzyl]amino]acetic acid]",2,
"Cc1oc(-c2ccccc2)nc1CCOc1ccc(CN(CC(=O)O)S(=O)(=O)N2CCCc3ccccc32)cc1 [Example 120, [N-(1,2,3,4-tetrahydroquinolinyl)sulfonyl-N-[4-[2-(2-phenyl-5-methyloxazol-4-yl)ethoxy]benzyl]amino]acetic acid]",2,
"Cc1ccc(-c2nc(CCOc3ccc(CN(CC(=O)O)S(=O)(=O)N4CCCc5ccccc54)cc3)c(C)o2)cc1 [Example 121, [N-(1,2,3,4-tetrahydroquinolinyl)sulfonyl-N-[4-[2-[2-(4-methylphenyl)-5-methyloxazol-4-yl]ethoxy]benzyl]amino]acetic acid]",2,
"Cc1oc(-c2ccc(C(F)(F)F)cc2)nc1CCOc1ccc(CN(CC(=O)O)S(=O)(=O)N2CCCc3ccccc32)cc1 [Example 122, [N-(1,2,3,4-tetrahydroquinolinyl)sulfonyl-N-[4-[2-[2-(4-trifluoromethylphenyl)-5-methyloxazol-4-yl]ethoxy]benzyl]amino]acetic acid]",2,
